Measurements published in patent publication US10435399B2, “HDAC6 inhibitory heterocyclic compound” (TAKEDA PHARMACEUTICAL COMPANY LIMITED, priority 2017, dated 2019).

target: T1, HDAC6 enzyme (Homo sapiens, UniProt Q9UBN7); experiment: HDAC6 enzyme inhibitory activity (HDAC-Glo I/II Assay kit); type: biochemical; settings: 10 μM; wells without enzyme = 100% inhibition; read-out: HDAC6 inhibitory rate (%) (10 μM)
T1 construct: transducing full length HDAC6 gene into Sf-9 insect cells; GST; purchased SignalChem; host or cells: Sf-9 insect cells
T1 sequence (Q9UBN7 1-1215): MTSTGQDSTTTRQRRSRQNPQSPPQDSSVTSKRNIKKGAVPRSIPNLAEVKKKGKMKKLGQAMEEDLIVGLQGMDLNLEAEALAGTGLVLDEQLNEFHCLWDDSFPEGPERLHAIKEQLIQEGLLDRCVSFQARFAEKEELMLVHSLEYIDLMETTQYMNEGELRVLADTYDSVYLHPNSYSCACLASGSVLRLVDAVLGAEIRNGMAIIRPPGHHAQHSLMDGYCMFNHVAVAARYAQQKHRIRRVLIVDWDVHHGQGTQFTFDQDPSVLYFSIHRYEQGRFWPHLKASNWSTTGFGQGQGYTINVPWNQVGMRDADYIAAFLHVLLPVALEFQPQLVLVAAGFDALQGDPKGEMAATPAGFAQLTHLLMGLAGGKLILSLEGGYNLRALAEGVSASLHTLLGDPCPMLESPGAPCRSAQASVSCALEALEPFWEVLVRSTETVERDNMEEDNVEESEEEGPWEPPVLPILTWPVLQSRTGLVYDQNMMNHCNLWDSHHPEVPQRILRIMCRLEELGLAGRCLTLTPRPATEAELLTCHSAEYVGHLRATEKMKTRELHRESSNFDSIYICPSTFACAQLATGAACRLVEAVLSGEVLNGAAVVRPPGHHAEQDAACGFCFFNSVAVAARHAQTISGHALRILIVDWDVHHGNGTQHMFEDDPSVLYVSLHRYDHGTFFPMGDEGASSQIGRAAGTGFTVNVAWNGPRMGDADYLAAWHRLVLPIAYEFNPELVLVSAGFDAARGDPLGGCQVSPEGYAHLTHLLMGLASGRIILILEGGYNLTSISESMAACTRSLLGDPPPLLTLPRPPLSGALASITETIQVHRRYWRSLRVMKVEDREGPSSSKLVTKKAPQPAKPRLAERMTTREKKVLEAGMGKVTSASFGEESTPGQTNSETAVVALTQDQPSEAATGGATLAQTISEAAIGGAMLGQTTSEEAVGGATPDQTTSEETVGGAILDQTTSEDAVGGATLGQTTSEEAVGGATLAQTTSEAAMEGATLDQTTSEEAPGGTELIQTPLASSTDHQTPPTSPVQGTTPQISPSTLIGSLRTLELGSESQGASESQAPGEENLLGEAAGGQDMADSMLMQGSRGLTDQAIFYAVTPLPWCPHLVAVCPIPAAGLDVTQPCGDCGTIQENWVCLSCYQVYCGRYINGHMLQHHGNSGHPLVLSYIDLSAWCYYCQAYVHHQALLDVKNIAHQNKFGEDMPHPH
In short: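 Full-length human HDAC6 (GST-purified, Sf-9 expressed) preincubated with compound 60 min at room temperature in Tris-HCl pH 7.5 buffer with MgCl2, KCl, NaCl, glutathione, Tween-20. HDAC-Glo I/II substrate-developer then added, 20 min room temperature, luminescence read. Inhibition relative to no-enzyme wells as 100%.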

| Compound | inhibition at 10 µM [%] |
| --- | --- |
| O=C1c2cc(-c3nnc(C(F)F)o3)ccc2CN1Cc1cc(C2CC2)on1 [Example 146, 2-((5-cyclopropyl-1,2-oxazol-3-yl)methyl)-6-(5-(difluoromethyl)-1,3,4-oxadiazol-2-yl)isoindolin-1-one] | 94 |
| O=C1c2cc(-c3nnc(C(F)F)o3)ccc2CN1Cc1ncc(F)cc1F [Example 147, 6-(5-(difluoromethyl)-1,3,4-oxadiazol-2-yl)-2-((3,5-difluoropyridin-2-yl)methyl)isoindolin-1-one] | 93 |
| O=C1c2cc(-c3nnc(C(F)F)o3)cnc2CN1[C@@H]1CCCC[C@H]1NC(=O)C1(C(F)(F)F)CC1 [Example 149, N-((1R,2R)-2-(3-(5-(difluoromethyl)-1,3,4-oxadiazol-2-yl)-5-oxo-5,7-dihydro-6H-pyrrolo[3,4-b]pyridin-6-yl)cyclohexyl)-1-(trifluoromethyl)cyclopropanecarboxamide] | 102 |
| O=C(N[C@@H]1CCCC[C@H]1N1Cc2ncc(-c3nnc(C(F)F)o3)cc2C1=O)OC1CC1 [Example 150, cyclopropyl ((1R,2R)-2-(3-(5-(difluoromethyl)-1,3,4-oxadiazol-2-yl)-5-oxo-5,7-dihydro-6H-pyrrolo[3,4-b]pyridin-6-yl)cyclohexyl)carbamate] | 97 |
| O=C1c2cc(-c3nnc(C(F)F)o3)ccc2CN1Cc1ccc(F)cc1 [Example 151, 6-(5-(difluoromethyl)-1,3,4-oxadiazol-2-yl)-2-(4-fluorobenzyl)isoindolin-1-one] | 98 |
| CC(=O)N[C@@H]1CCCC[C@H]1N1Cc2c(F)cc(-c3nnc(C(F)F)o3)cc2C1=O [Example 152, N-((1R,2R)-2-(6-(5-(difluoromethyl)-1,3,4-oxadiazol-2-yl)-4-fluoro-1-oxo-1,3-dihydro-2H-isoindol-2-yl)cyclohexyl)acetamide] | 99 |
| CNC(=O)O[C@@H]1CCCC[C@H]1N1Cc2ccc(-c3nnc(C(F)F)o3)cc2C1=O [Example 154, (1R,2R)-2-(6-(5-(difluoromethyl)-1,3,4-oxadiazol-2-yl)-1-oxo-1,3-dihydro-2H-isoindol-2-yl)cyclohexyl methylcarbamate] | 98 |
| O=C1c2cc(-c3nnc(C(F)F)o3)cc(F)c2CN1Cc1ccccn1 [Example 155, 6-(5-(difluoromethyl)-1,3,4-oxadiazol-2-yl)-4-fluoro-2-(pyridin-2-ylmethyl)isoindolin-1-one] | 95 |
| CN1CCN([C@@H]2CCCC[C@H]2N2Cc3ccc(-c4nnc(C(F)F)o4)cc3C2=O)C1=O [Example 157, 6-(5-(difluoromethyl)-1,3,4-oxadiazol-2-yl)-2-((1R,2R)-2-(3-methyl-2-oxoimidazolidin-1-yl)cyclohexyl)isoindolin-1-one] | 98 |
| Cc1nn(C)cc1-c1ccccc1N1Cc2ccc(-c3nnc(C(F)F)o3)cc2C1=O [Example 159, 6-(5-(difluoromethyl)-1,3,4-oxadiazol-2-yl)-2-(2-(1,3-dimethyl-1H-pyrazol-4-yl)phenyl)isoindolin-1-one] | 100 |
| Cn1nccc1-c1ccccc1N1Cc2ccc(-c3nnc(C(F)F)o3)cc2C1=O [Example 160, 6-(5-(difluoromethyl)-1,3,4-oxadiazol-2-yl)-2-(2-(1-methyl-1H-pyrazol-5-yl)phenyl)isoindolin-1-one] | 101 |
| CC(F)(F)C(=O)N[C@@H]1CCCC[C@H]1N1Cc2ncc(-c3nnc(C(F)F)o3)cc2C1=O [Example 162, N-((1R,2R)-2-(3-(5-(difluoromethyl)-1,3,4-oxadiazol-2-yl)-5-oxo-5,7-dihydro-6H-pyrrolo[3,4-b]pyridin-6-yl)cyclohexyl)-2,2-difluoropropanamide] | 97 |
| O=C(N[C@@H]1CCCC[C@H]1N1Cc2ncc(-c3nnc(C(F)F)o3)cc2C1=O)c1cccc(Cl)c1 [Example 163, 3-chloro-N-((1R,2R)-2-(3-(5-(difluoromethyl)-1,3,4-oxadiazol-2-yl)-5-oxo-5,7-dihydro-6H-pyrrolo[3,4-b]pyridin-6-yl)cyclohexyl)benzamide] | 98 |
| O=C(N[C@@H]1CCCC[C@H]1N1Cc2c(F)cc(-c3nnc(C(F)F)o3)cc2C1=O)C(F)F [Example 165, N-((1R,2R)-2-(6-(5-(difluoromethyl)-1,3,4-oxadiazol-2-yl)-4-fluoro-1-oxo-1,3-dihydro-2H-isoindol-2-yl)cyclohexyl)-2,2-difluoroacetamide] | 99 |
| CCC(=O)N[C@@H]1CCCC[C@H]1N1C(=O)c2ccc(-c3nnc(C(F)F)o3)cc2C1=O [Example 166, N-((1R,2R)-2-(5-(5-(difluoromethyl)-1,3,4-oxadiazol-2-yl)-1,3-dioxo-1,3-dihydro-2H-isoindol-2-yl)cyclohexyl)propanamide] | 97 |

Now from value to compound:

| inhibition at 10 µM [%] | Compound |
| --- | --- |
| 99 | CC(C)(C)OC(=O)N[C@@H]1CCCC[C@H]1N1Cc2c(F)cc(-c3nnc(C(F)F)o3)cc2C1=O [Example 148, tert-butyl ((1R,2R)-2-(6-(5-(difluoromethyl)-1,3,4-oxadiazol-2-yl)-4-fluoro-1-oxo-1,3-dihydro-2H-isoindol-2-yl)cyclohexyl)carbamate] |
| 100 | COC(=O)N[C@@H]1CCCC[C@H]1N1Cc2c(F)cc(-c3nnc(C(F)F)o3)cc2C1=O [Example 153, methyl ((1R,2R)-2-(6-(5-(difluoromethyl)-1,3,4-oxadiazol-2-yl)-4-fluoro-1-oxo-1,3-dihydro-2H-isoindol-2-yl)cyclohexyl)carbamate] |
| 100 | COc1ccccc1-c1ccccc1N1Cc2ccc(-c3nnc(C(F)F)o3)cc2C1=O [Example 156, 6-(5-(difluoromethyl)-1,3,4-oxadiazol-2-yl)-2-(2′-methoxybiphenyl-2-yl)isoindolin-1-one] |
| 100 | Cc1cc(-c2ccccc2N2Cc3ccc(-c4nnc(C(F)F)o4)cc3C2=O)n(C)n1 [Example 158, 6-(5-(difluoromethyl)-1,3,4-oxadiazol-2-yl)-2-(2-(1,3-dimethyl-1H-pyrazol-5-yl)phenyl)isoindolin-1-one] |
| 99 | COC(=O)N[C@@H]1CCCC[C@H]1N1Cc2ncc(-c3nnc(C(F)F)o3)cc2C1=O [Example 161, methyl ((1R,2R)-2-(3-(5-(difluoromethyl)-1,3,4-oxadiazol-2-yl)-5-oxo-5,7-dihydro-6H-pyrrolo[3,4-b]pyridin-6-yl)cyclohexyl)carbamate] |
| 99 | O=C(N[C@@H]1CCCC[C@H]1N1Cc2ncc(-c3nnc(C(F)F)o3)cc2C1=O)c1ccccn1 [Example 164, N-((1R,2R)-2-(3-(5-(difluoromethyl)-1,3,4-oxadiazol-2-yl)-5-oxo-5,7-dihydro-6H-pyrrolo[3,4-b]pyridin-6-yl)cyclohexyl)pyridine-2-carboxamide] |
| 100 | CC(C)(C)OC(=O)N[C@@H]1COCC[C@H]1N1Cc2c(F)cc(-c3nnc(C(F)F)o3)cc2C1=O [Example 167, tert-butyl ((3S,4R)-4-(6-(5-(difluoromethyl)-1,3,4-oxadiazol-2-yl)-4-fluoro-1-oxo-1,3-dihydro-2H-isoindol-2-yl)tetrahydro-2H-pyran-3-yl)carbamate] |
| 100 | CC(C)(C)OC(=O)N1CCOC[C@@H]1CN1Cc2c(F)cc(-c3nnc(C(F)F)o3)cc2C1=O [Example 168, tert-butyl (3S)-3-((6-(5-(difluoromethyl)-1,3,4-oxadiazol-2-yl)-4-fluoro-1-oxo-1,3-dihydro-2H-isoindol-2-yl)methyl)morpholine-4-carboxylate] |
| 101 | N#Cc1cccc(-c2ccccc2N2Cc3ccc(-c4nnc(C(F)F)o4)cc3C2=O)c1 [Example 169, 2′-(6-(5-(difluoromethyl)-1,3,4-oxadiazol-2-yl)-1-oxo-1,3-dihydro-2H-isoindol-2-yl)biphenyl-3-carbonitrile] |
| 102 | COc1cccc(-c2ccccc2N2Cc3ccc(-c4nnc(C(F)F)o4)cc3C2=O)c1 [Example 170, 6-(5-(difluoromethyl)-1,3,4-oxadiazol-2-yl)-2-(3′-methoxybiphenyl-2-yl)isoindolin-1-one] |
